Laboratory results taken from patent US20260262643A1, “HERBICIDAL BENZOXAZINES” (FMC CORPORATION, priority 2022, published 2026).

Assays:
barnyardgrass [1] = assay: Test C preemergence; format: in vivo, Echinochloa crusgalli; conditions: 0 to 100 scale (0 no effect, 100 complete control); for Plant response rating, Barnyardgrass: Preemergence, 500 g ai/ha, visual rating after 10 days; for Barnyardgrass plant response rating: Test C, preemergence, 125 g ai/ha
How it was run: (§1)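 Test material, in non-phytotoxic solvent with surfactant, was sprayed on the soil directly after seeding (preemergence) or on young plants of 2–10 cm with one to two leaves (postemergence). Greenhouse, 10 days; 0–100 visual control scale.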

blackgrass [2] = assay: Test C preemergence; format: in vivo, Alopecurus myosuroides; conditions: 0 to 100 scale (0 no effect, 100 complete control); for Plant response rating, Blackgrass: Preemergence, 500 g ai/ha, visual rating after 10 days; for Blackgrass plant response rating: Test C, preemergence, 125 g ai/ha
How it was run: as §1

corn [3] = assay: Test C preemergence; format: in vivo, Zea mays; conditions: 0 to 100 scale (0 no effect, 100 complete control); for Corn plant response rating: preemergence
How it was run: as §1

green foxtail [4] = assay: Test C preemergence; format: in vivo, Setaria viridis; conditions: 0 to 100 scale (0 no effect, 100 complete control); for Foxtail, Green plant response rating: preemergence
How it was run: as §1

kochia [5] = assay: Test C preemergence; format: in vivo, Bassia scoparia; conditions: 0 to 100 scale (0 no effect, 100 complete control); for Kochia plant response rating: preemergence
How it was run: as §1

oat, wild [6] = assay: Test C preemergence; format: in vivo, Avena fatua; conditions: 0 to 100 scale (0 no effect, 100 complete control); for Oat, Wild plant response rating: preemergence
How it was run: as §1

pigweed, palmer [7] = assay: Test C preemergence; format: in vivo, Amaranthus palmeri; conditions: 0 to 100 scale (0 no effect, 100 complete control); for Pigweed, Palmer plant response rating: preemergence
How it was run: as §1

ragweed [8] = assay: Test C preemergence; format: in vivo, Ambrosia artemisiifolia; conditions: 0 to 100 scale (0 no effect, 100 complete control); for Ragweed plant response rating: preemergence
How it was run: as §1

ryegrass, Italian [9] = assay: Test C preemergence; format: in vivo, Lolium multiflorum; conditions: 0 to 100 scale (0 no effect, 100 complete control); for Ryegrass, Italian plant response rating: preemergence
How it was run: as §1

soybean [10] = assay: Test C preemergence; format: in vivo, Glycine max; conditions: 0 to 100 scale (0 no effect, 100 complete control); for Soybean plant response rating: preemergence
How it was run: as §1

wheat [11] = assay: Test C preemergence; format: in vivo, Triticum aestivum; conditions: 0 to 100 scale (0 no effect, 100 complete control); for Wheat plant response rating: preemergence
How it was run: as §1

barnyardgrass [12] = assay: Test C postemergence; format: in vivo, Echinochloa crusgalli; conditions: 10 days
How it was run: as §1

blackgrass [13] = assay: Test C postemergence; format: in vivo, Alopecurus myosuroides; conditions: 10 days
How it was run: as §1

corn [14] = assay: Test C postemergence; format: in vivo, Zea mays; conditions: 10 days
How it was run: as §1

green foxtail [15] = assay: Test C postemergence; format: in vivo, Setaria viridis; conditions: 10 days
How it was run: as §1

kochia [16] = assay: Test C postemergence; format: in vivo, Bassia scoparia; conditions: 10 days
How it was run: as §1

oat, wild [17] = assay: Test C postemergence; format: in vivo, Avena fatua; conditions: 10 days
How it was run: as §1

pigweed, palmer [18] = assay: Test C postemergence; format: in vivo, Amaranthus palmeri; conditions: 10 days
How it was run: as §1

ragweed [19] = assay: Test C postemergence; format: in vivo, Ambrosia artemisiifolia; conditions: 10 days
How it was run: as §1

ryegrass, Italian [20] = assay: Test C postemergence; format: in vivo, Lolium multiflorum; conditions: 10 days
How it was run: as §1

soybean [21] = assay: Test C postemergence; format: in vivo, Glycine max; conditions: 10 days
How it was run: as §1

wheat [22] = assay: Test C postemergence; format: in vivo, Triticum aestivum; conditions: 10 days
How it was run: as §1

galium = assay: Test C postemergence; format: in vivo, Galium aparine; conditions: 10 days
How it was run: as §1

horseweed = assay: Test C postemergence; format: in vivo, Erigeron canadensis; conditions: 10 days
How it was run: as §1

barnyardgrass [23] = assay: Test D flooded paddy test; format: in vivo, Echinochloa crus-galli; conditions: 250 g ai/ha, applied to paddy water, visual rating after 13 to 14 days, scale 0 to 100 (0 no effect, 100 complete control)
How it was run: (§2)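 Post-flood water application at the 2-leaf stage; 3 cm flood depth kept constant; visual control rating 0–100 after 13–14 days greenhouse growth.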

ducksalad = assay: Test D flooded paddy test; format: in vivo, Heteranthera limosa; conditions: 250 g ai/ha, applied to paddy water, visual rating after 13 to 14 days, scale 0 to 100 (0 no effect, 100 complete control)
How it was run: as §2

rice = assay: Test D flooded paddy test; format: in vivo, Oryza sativa; conditions: 250 g ai/ha, applied to paddy water, visual rating after 13 to 14 days, scale 0 to 100 (0 no effect, 100 complete control)
How it was run: as §2

sedge, umbrella = assay: Test D flooded paddy test; format: in vivo, Cyperus difformis; conditions: 250 g ai/ha, applied to paddy water, visual rating after 13 to 14 days, scale 0 to 100 (0 no effect, 100 complete control)
How it was run: as §2

[24] = Preemergence, 500 g ai/ha, visual rating after 10 days
[25] = 125 g ai/ha, postemergence, 0 to 100 scale, 0 no effect, 100 complete control
[26] = Postemergence, 500 g ai/ha, visual 0 to 100 scale (0 no effect, 100 complete control)

Q: Which results are given for `COc1ccc(-n2cncn2)cc1C(=O)N1C[C@H](C)Oc2c(Cl)cccc21` [Compound 241]?
A: Plant response rating, Barnyardgrass (barnyardgrass [1]): 100; Barnyardgrass plant response rating (barnyardgrass [1]): 90; Plant response rating, Blackgrass (blackgrass [2]): 70; Blackgrass plant response rating (blackgrass [2]): 50; Plant response rating, Corn (corn [3]; [24]): 70; Corn plant response rating (corn [3]; Test C, 125 g ai/ha): 20; Plant response rating, Foxtail, Green (green foxtail [4]; [24]): 100; Foxtail, Green plant response rating (green foxtail [4]; Test C, 125 g ai/ha): 100; Plant response rating, Kochia (kochia [5]; [24]): 80; Kochia plant response rating (kochia [5]; Test C, 125 g ai/ha): 20; Plant response rating, Oat, Wild (oat, wild [6]; [24]): 90; Oat, Wild plant response rating (oat, wild [6]; Test C, 125 g ai/ha): 50; Plant response rating, Pigweed, Palmer (pigweed, palmer [7]; [24]): 100; Pigweed, Palmer plant response rating (pigweed, palmer [7]; Test C, 125 g ai/ha): 100; Plant response rating, Ragweed (ragweed [8]; [24]): 10; Ragweed plant response rating (ragweed [8]; Test C, 125 g ai/ha): 10; Plant response rating, Ryegrass, Italian (ryegrass, Italian [9]; [24]): 90; Ryegrass, Italian plant response rating (ryegrass, Italian [9]; Test C, 125 g ai/ha): 90; Plant response rating, Soybean (soybean [10]; [24]): 100; Soybean plant response rating (soybean [10]; Test C, 125 g ai/ha): 100; Plant response rating, Wheat (wheat [11]; [24]): 90; Wheat plant response rating (wheat [11]; Test C, 125 g ai/ha): 60; Plant response rating, Barnyardgrass (barnyardgrass [12]; [25]): 100; Plant response rating, Barnyardgrass (barnyardgrass [12]; [26]): 100; Plant response rating, Blackgrass (blackgrass [13]; [25]): 90; Plant response rating, Blackgrass (blackgrass [13]; [26]): 100; Plant response rating, Corn (corn [14]; [25]): 60; Plant response rating, Corn (corn [14]; [26]): 100; Plant response rating, Foxtail, Green (green foxtail [15]; [25]): 90; Plant response rating, Foxtail, Green (green foxtail [15]; [26]): 90; Plant response rating, Kochia (kochia [16]; [25]): 20; Plant response rating, Kochia (kochia [16]; [26]): 70; Plant response rating, Oat, Wild (oat, wild [17]; [25]): 60; Plant response rating, Oat, Wild (oat, wild [17]; [26]): 90; Plant response rating, Pigweed, Palmer (pigweed, palmer [18]; [25]): 70; Plant response rating, Pigweed, Palmer (pigweed, palmer [18]; [26]): 90; Plant response rating, Ragweed (ragweed [19]; [25]): 50; Plant response rating, Ragweed (ragweed [19]; [26]): 90; Plant response rating, Ryegrass, Italian (ryegrass, Italian [20]; [25]): 90; Plant response rating, Ryegrass, Italian (ryegrass, Italian [20]; [26]): 100; Plant response rating, Soybean (soybean [21]; [25]): 100; Plant response rating, Soybean (soybean [21]; [26]): 100; Plant response rating, Wheat (wheat [22]; [25]): 50; Plant response rating, Wheat (wheat [22]; [26]): 90; Plant response rating, Galium (galium; [25]): 100; Plant response rating, Galium (galium; [26]): 100; Plant response rating, Horseweed (horseweed; [25]): 50; Plant response rating, Horseweed (horseweed; [26]): 90; Plant response rating, Barnyardgrass (Flood) (barnyardgrass [23]): 50; Plant response rating, Ducksalad (Flood) (ducksalad): 90; Plant response rating, Rice (Flood) (rice): 15; Plant response rating, Sedge, Umbrella (Flood) (sedge, umbrella): 100

Q: Which “Plant response rating, Barnyardgrass” value (barnyardgrass [1]) does the source give for `CCc1ccc(-n2cnc(C(C)(C)O)n2)cc1C(=O)N1C[C@H](C)Oc2c(C)cccc21` [Compound 279] here?
A: 100

Q: What about the “Barnyardgrass plant response rating” value (barnyardgrass [1]) of the same compound?
A: 90

Q: What about the “Plant response rating, Blackgrass” value (blackgrass [2]) of the same compound?
A: 90

Q: What about the “Blackgrass plant response rating” value (blackgrass [2]) of the same compound?
A: 70

Q: And the “Corn plant response rating” value (corn [3]; 500 g ai/ha)?
A: 80

Q: What about the “Corn plant response rating” value (corn [3]; Test C, 125 g ai/ha) of the same compound?
A: 50

Q: And the “Foxtail, Green plant response rating” value (green foxtail [4]; 500 g ai/ha)?
A: 100

Q: What about the “Foxtail, Green plant response rating” value (green foxtail [4]; Test C, 125 g ai/ha) of the same compound?
A: 100

Q: And the “Kochia plant response rating” value (kochia [5]; 500 g ai/ha)?
A: 90

Q: What about the “Kochia plant response rating” value (kochia [5]; Test C, 125 g ai/ha) of the same compound?
A: 70

Q: And the “Oat, Wild plant response rating” value (oat, wild [6]; 500 g ai/ha)?
A: 90

Q: And the “Oat, Wild plant response rating” value (oat, wild [6]; Test C, 125 g ai/ha)?
A: 80

Q: And the “Pigweed, Palmer plant response rating” value (pigweed, palmer [7]; 500 g ai/ha)?
A: 100

Q: And the “Pigweed, Palmer plant response rating” value (pigweed, palmer [7]; Test C, 125 g ai/ha)?
A: 100

Q: And the “Ragweed plant response rating” value (ragweed [8]; 500 g ai/ha)?
A: 90

Q: And the “Ragweed plant response rating” value (ragweed [8]; Test C, 125 g ai/ha)?
A: 70

Q: What about the “Ryegrass, Italian plant response rating” value (ryegrass, Italian [9]; 500 g ai/ha) of the same compound?
A: 90

Q: What about the “Ryegrass, Italian plant response rating” value (ryegrass, Italian [9]; Test C, 125 g ai/ha) of the same compound?
A: 90

Q: What about the “Soybean plant response rating” value (soybean [10]; 500 g ai/ha) of the same compound?
A: 100

Q: And the “Soybean plant response rating” value (soybean [10]; Test C, 125 g ai/ha)?
A: 90

Q: And the “Wheat plant response rating” value (wheat [11]; 500 g ai/ha)?
A: 90

Q: And the “Wheat plant response rating” value (wheat [11]; Test C, 125 g ai/ha)?
A: 60

Q: What about the “Plant response rating, Barnyardgrass” value (barnyardgrass [12]; [25]) of the same compound?
A: 90

Q: And the “Plant response rating, Barnyardgrass” value (barnyardgrass [12]; [26])?
A: 100

Q: What about the “Plant response rating, Blackgrass” value (blackgrass [13]; [25]) of the same compound?
A: 80

Q: What about the “Plant response rating, Blackgrass” value (blackgrass [13]; [26]) of the same compound?
A: 90

Q: What about the “Plant response rating, Corn” value (corn [14]; [25]) of the same compound?
A: 90

Q: And the “Plant response rating, Corn” value (corn [14]; [26])?
A: 90

Q: What about the “Plant response rating, Foxtail, Green” value (green foxtail [15]; [25]) of the same compound?
A: 90

Q: And the “Plant response rating, Foxtail, Green” value (green foxtail [15]; [26])?
A: 90

Q: What about the “Plant response rating, Kochia” value (kochia [16]; [25]) of the same compound?
A: 20

Q: What about the “Plant response rating, Oat, Wild” value (oat, wild [17]; [25]) of the same compound?
A: 80

Q: What about the “Plant response rating, Pigweed, Palmer” value (pigweed, palmer [18]; [25]) of the same compound?
A: 70

Q: What about the “Plant response rating, Ragweed” value (ragweed [19]; [25]) of the same compound?
A: 50

Q: And the “Plant response rating, Ryegrass, Italian” value (ryegrass, Italian [20]; [25])?
A: 90

Q: And the “Plant response rating, Soybean” value (soybean [21]; [25])?
A: 100

Q: And the “Plant response rating, Wheat” value (wheat [22]; [25])?
A: 80

Q: And the “Plant response rating, Galium” value (galium; [25])?
A: 100

Q: What about the “Plant response rating, Galium” value (galium; [26]) of the same compound?
A: 100

Q: And the “Plant response rating, Horseweed” value (horseweed; [25])?
A: 0

Q: And the “Plant response rating, Horseweed” value (horseweed; [26])?
A: 20

Q: And the “Plant response rating, Barnyardgrass (Flood)” value (barnyardgrass [23])?
A: 60

Q: What about the “Plant response rating, Ducksalad (Flood)” value (ducksalad) of the same compound?
A: 100

Q: What about the “Plant response rating, Rice (Flood)” value (rice) of the same compound?
A: 35

Q: And the “Plant response rating, Sedge, Umbrella (Flood)” value (sedge, umbrella)?
A: 100
